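Exposure lasted 48 hours, with cells grown in 96-well plates and compounds tested at five concentrations. Definition used: TGI = concentration required for complete inhibition of growth.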
The molecules below were run on MOLT-4 leukemia (assay: growth of human tumour cells (NCI), 48 h).

Structure (SMILES) | TGI [µM]
CNc1ccc(/C=C2\C=Cc3ccccc32)cc1 | > 100

These molecules were tested on NCI-H226 lung (assay: growth of human tumour cells (NCI), 48 h).

Structure (SMILES) | TGI [µM]
CN(C)c1nc(=Nc2ccc3c(c2)OCO3)ss1 | > 100
CCN1C(=O)N(C)C(O)c2c1nc1ccccn1c2=O (centres undefined) | > 100
CCCCc1c2c(nc3c1CCCC3=O)C(=O)CCC2 | > 100
CNc1ccc(/C=C2\C=Cc3ccccc32)cc1 | 57.3

Each molecule was assayed on NCI-H23 lung (assay: growth of human tumour cells (NCI), 48 h).

Structure (SMILES) | TGI [µM]
CN(C)c1nc(=Nc2ccc3c(c2)OCO3)ss1 | > 100
CCN1C(=O)N(C)C(O)c2c1nc1ccccn1c2=O (centres undefined) | 63.6
Cc1cc(NS(=O)(=O)c2ccc(Nc3c4ccccc4nc4c(C(=O)Nc5ccc(S(N)(=O)=O)cc5)cccc34)cc2)no1 | > 100
CCCCc1c2c(nc3c1CCCC3=O)C(=O)CCC2 | > 100
CNc1ccc(/C=C2\C=Cc3ccccc32)cc1 | 57.7

What follows are molecules tested on NCI-H460 lung (assay: growth of human tumour cells (NCI), 48 h).

Structure (SMILES) | TGI [µM]
CN(C)c1nc(=Nc2ccc3c(c2)OCO3)ss1 | > 100
CCN1C(=O)N(C)C(O)c2c1nc1ccccn1c2=O (centres undefined) | 42.8
Cc1cc(NS(=O)(=O)c2ccc(Nc3c4ccccc4nc4c(C(=O)Nc5ccc(S(N)(=O)=O)cc5)cccc34)cc2)no1 | > 100
CCCCc1c2c(nc3c1CCCC3=O)C(=O)CCC2 | > 100
CNc1ccc(/C=C2\C=Cc3ccccc32)cc1 | 37.9

What follows are molecules tested on NCI-H522 lung (assay: growth of human tumour cells (NCI), 48 h).

Structure (SMILES) | TGI [µM]
CN(C)c1nc(=Nc2ccc3c(c2)OCO3)ss1 | > 100
CCN1C(=O)N(C)C(O)c2c1nc1ccccn1c2=O (centres undefined) | 65.6
Cc1cc(NS(=O)(=O)c2ccc(Nc3c4ccccc4nc4c(C(=O)Nc5ccc(S(N)(=O)=O)cc5)cccc34)cc2)no1 | 54.1
CCCCc1c2c(nc3c1CCCC3=O)C(=O)CCC2 | > 100
CNc1ccc(/C=C2\C=Cc3ccccc32)cc1 | 25.3

These molecules were tested on OVCAR-3 ovarian (assay: growth of human tumour cells (NCI), 48 h).

Structure (SMILES) | TGI [µM]
CCN1C(=O)N(C)C(O)c2c1nc1ccccn1c2=O (centres undefined) | 63.9
Cc1cc(NS(=O)(=O)c2ccc(Nc3c4ccccc4nc4c(C(=O)Nc5ccc(S(N)(=O)=O)cc5)cccc34)cc2)no1 | 31.7
CCCCc1c2c(nc3c1CCCC3=O)C(=O)CCC2 | > 100
CNc1ccc(/C=C2\C=Cc3ccccc32)cc1 | 51.9

The molecules below were run on OVCAR-4 ovarian (assay: growth of human tumour cells (NCI), 48 h).

Structure (SMILES) | TGI [µM]
CN(C)c1nc(=Nc2ccc3c(c2)OCO3)ss1 | > 100
CCN1C(=O)N(C)C(O)c2c1nc1ccccn1c2=O (centres undefined) | > 100
Cc1cc(NS(=O)(=O)c2ccc(Nc3c4ccccc4nc4c(C(=O)Nc5ccc(S(N)(=O)=O)cc5)cccc34)cc2)no1 | 51.1
CCCCc1c2c(nc3c1CCCC3=O)C(=O)CCC2 | > 100
CNc1ccc(/C=C2\C=Cc3ccccc32)cc1 | > 100

Each molecule was assayed on OVCAR-5 ovarian (assay: growth of human tumour cells (NCI), 48 h).

Structure (SMILES) | TGI [µM]
CN(C)c1nc(=Nc2ccc3c(c2)OCO3)ss1 | > 100
Cc1cc(NS(=O)(=O)c2ccc(Nc3c4ccccc4nc4c(C(=O)Nc5ccc(S(N)(=O)=O)cc5)cccc34)cc2)no1 | > 100
CCCCc1c2c(nc3c1CCCC3=O)C(=O)CCC2 | > 100
CNc1ccc(/C=C2\C=Cc3ccccc32)cc1 | 45

Each molecule was assayed on OVCAR-8 ovarian (assay: growth of human tumour cells (NCI), 48 h).

Structure (SMILES) | TGI [µM]
CN(C)c1nc(=Nc2ccc3c(c2)OCO3)ss1 | > 100
CCN1C(=O)N(C)C(O)c2c1nc1ccccn1c2=O (centres undefined) | 46.4
Cc1cc(NS(=O)(=O)c2ccc(Nc3c4ccccc4nc4c(C(=O)Nc5ccc(S(N)(=O)=O)cc5)cccc34)cc2)no1 | > 100
CCCCc1c2c(nc3c1CCCC3=O)C(=O)CCC2 | > 100
CNc1ccc(/C=C2\C=Cc3ccccc32)cc1 | > 100

What follows are molecules tested on RPMI-8226 leukemia (assay: growth of human tumour cells (NCI), 48 h).

Structure (SMILES) | TGI [µM]
CN(C)c1nc(=Nc2ccc3c(c2)OCO3)ss1 | 57.8
CCN1C(=O)N(C)C(O)c2c1nc1ccccn1c2=O (centres undefined) | 78.6
Cc1cc(NS(=O)(=O)c2ccc(Nc3c4ccccc4nc4c(C(=O)Nc5ccc(S(N)(=O)=O)cc5)cccc34)cc2)no1 | > 100
CCCCc1c2c(nc3c1CCCC3=O)C(=O)CCC2 | > 100
CNc1ccc(/C=C2\C=Cc3ccccc32)cc1 | > 100

Each molecule was assayed on RXF 393 renal (assay: growth of human tumour cells (NCI), 48 h).

Structure (SMILES) | TGI [µM]
CN(C)c1nc(=Nc2ccc3c(c2)OCO3)ss1 | > 100
CCN1C(=O)N(C)C(O)c2c1nc1ccccn1c2=O (centres undefined) | 59
Cc1cc(NS(=O)(=O)c2ccc(Nc3c4ccccc4nc4c(C(=O)Nc5ccc(S(N)(=O)=O)cc5)cccc34)cc2)no1 | > 100
CCCCc1c2c(nc3c1CCCC3=O)C(=O)CCC2 | > 100
CNc1ccc(/C=C2\C=Cc3ccccc32)cc1 | > 100

These molecules were tested on SF-268 CNS (assay: growth of human tumour cells (NCI), 48 h).

Structure (SMILES) | TGI [µM]
CN(C)c1nc(=Nc2ccc3c(c2)OCO3)ss1 | > 100
CCN1C(=O)N(C)C(O)c2c1nc1ccccn1c2=O (centres undefined) | 68.8
Cc1cc(NS(=O)(=O)c2ccc(Nc3c4ccccc4nc4c(C(=O)Nc5ccc(S(N)(=O)=O)cc5)cccc34)cc2)no1 | > 100
CCCCc1c2c(nc3c1CCCC3=O)C(=O)CCC2 | > 100
CNc1ccc(/C=C2\C=Cc3ccccc32)cc1 | > 100

The molecules below were run on SF-295 CNS (assay: growth of human tumour cells (NCI), 48 h).

Structure (SMILES) | TGI [µM]
CN(C)c1nc(=Nc2ccc3c(c2)OCO3)ss1 | > 100
CCN1C(=O)N(C)C(O)c2c1nc1ccccn1c2=O (centres undefined) | > 100
Cc1cc(NS(=O)(=O)c2ccc(Nc3c4ccccc4nc4c(C(=O)Nc5ccc(S(N)(=O)=O)cc5)cccc34)cc2)no1 | > 100
CCCCc1c2c(nc3c1CCCC3=O)C(=O)CCC2 | > 100
CNc1ccc(/C=C2\C=Cc3ccccc32)cc1 | 99

The molecules below were run on SF-539 CNS (assay: growth of human tumour cells (NCI), 48 h).

Structure (SMILES) | TGI [µM]
CN(C)c1nc(=Nc2ccc3c(c2)OCO3)ss1 | > 100
CCN1C(=O)N(C)C(O)c2c1nc1ccccn1c2=O (centres undefined) | 54.3
Cc1cc(NS(=O)(=O)c2ccc(Nc3c4ccccc4nc4c(C(=O)Nc5ccc(S(N)(=O)=O)cc5)cccc34)cc2)no1 | 61.2
CCCCc1c2c(nc3c1CCCC3=O)C(=O)CCC2 | > 100
CNc1ccc(/C=C2\C=Cc3ccccc32)cc1 | > 100

These molecules were tested on SK-MEL-2 melanoma (assay: growth of human tumour cells (NCI), 48 h).

Structure (SMILES) | TGI [µM]
CN(C)c1nc(=Nc2ccc3c(c2)OCO3)ss1 | > 100
CCN1C(=O)N(C)C(O)c2c1nc1ccccn1c2=O (centres undefined) | 62.8
Cc1cc(NS(=O)(=O)c2ccc(Nc3c4ccccc4nc4c(C(=O)Nc5ccc(S(N)(=O)=O)cc5)cccc34)cc2)no1 | 69.3
CCCCc1c2c(nc3c1CCCC3=O)C(=O)CCC2 | > 100
CNc1ccc(/C=C2\C=Cc3ccccc32)cc1 | 42

What follows are molecules tested on SK-MEL-28 melanoma (assay: growth of human tumour cells (NCI), 48 h).

Structure (SMILES) | TGI [µM]
CN(C)c1nc(=Nc2ccc3c(c2)OCO3)ss1 | > 100

From PubChem BioAssay (NCI)
